From US8536222B2, “Addition compounds of guanidinoacetic acid” (AlzChem AG, priority 2005, dated 2013)

Tests used:
solubility in water = type: physicochemical; settings: water at 20° C.
[1] = 1 g in water at 15° C.; cited from earlier work
[2] = tested on: creatine content in muscles; settings: rats, diets containing about 0.36 g/kg; cited from earlier work
fattened chicken = test: feed for fattened chicken, 42 day fattening period; type: in vivo; settings: 0.2% by weight in air-dried feed
Procedure: • 2.1 A formulation consisting of 5000 mg guanidinoacetic acid malate and 5000 mg inulin was introduced into a typical formulation of feed pellets as a feed supplement for horses. • 2.2 A formulation consisting of 7000 mg guanidinoacetic acid lactate, 750 mg carnitine tartrate, 100 mg sucrose stearate, 160 mg talcum and 1090 mg fructose was introduced into the basic bulk for dog biscuits. • 2.3 The following formulation was introduced homogenously as a master batch into a commercially canned cat food mixture: 3000 mg guanidinoacetic acid citrate, 3000 mg creatine, 40 mg magnesium stearate, 25 mg carboxymethyl-cellulose and […] lactose. • 2.4 Feed for fattened chicken
In addition the consumption of feed decreased by about 6% compared to previous feeding methods.

SMILES	dissolves in water (solubility in water)	solubility in water (ml water needed for 1 g) [1] [mL]	increase of creatine content in muscles compared to the comparison group [2] [%]	decrease of consumption of feed compared to previous feeding methods (fattened chicken)	increase of end weight compared to previous feeding methods without guanidinoacetic acid (fattened chicken) [%]	meat quality (fattened chicken)	nature of the increase in weight (fattened chicken)
N=C(N)NCC(=O)O [guanidinoacetic acid]	very poorly	278	39				
N=C(N)NCC(=O)O.O=C(O)CCCCC1CCSS1 (stereo not shown) [guanidinoacetic acid lipoate]				about 6%	5	improved quality	solely by a meat increase
